Laboratory results reported in patent publication US10583098B2, “Topical co-enzyme Q10 formulations and treatment of pain, fatigue and wounds” (priority 2006, dated 2020).

Tests used:
Type in all cases: cell-based
[1] = system: human neonatal keratinocytes (SC-KC); test: Keratinocyte proliferation; conditions: in words
From the text: (§1) FIGS. 7-10 show the results obtained.

[2] = system: Human Aortic Smooth Muscle Cells (HASMC); test: HASMC proliferation, Coulter cell count; conditions: for Cell number: 24 h incubation, HASMC; for % Diff vs. Ctrl (24 hr): HASMC cell number
Description: At approximately 80% confluency, the cells were subcultured using Trypsin-EDTA to detach the cells and Defined Trypsin Inhibitor, DTI to neutralize the cell suspension before centrifugation at 2500 RPM for 8 minutes. The supernatant was aspirated and discarded. The resultant cell pellet was then resuspended in fresh Medium 231. A cell count was performed using a hemocytometer before seeding the experimental 6-well plates at 200,000 cells/well.
Q10 was dissolved in ethanol and the solution was diluted with Medium 231 to the required concentrations. The Vehicle used in preparing the composition comprising about 0.001% to about 60% (w/w) Coenzyme Q10 was composed of MCT, BHT, Glycerol, and Sodium Phosphate buffered to pH 7.2 and subjected to sonication, then diluted with Medium 231 to experimental concentrations.
(§2) D-(+)-Glucose at 10 mM (Peiro et al., Brit. Jour. of Pharmacology 133: 967-974 (2001)) was used as an energy substrate for the production of ATP. The wells of the 6-well plate were incubated with 0-20 μg/ml of CoQ10, 1 μg and 20 μg/ml CoQ10, or 1 μg and 20 μg/ml of the Vehicle of Coenzyme Q10, all in Medium 231. The well plates were incubated at 37° C. and 5% CO2 for specified experimental periods. Medium 231 contains 4.6 mM Glu originally, thus only an additional 5.4 mM added to medium (Dr. Gary D. Shipley, Cascade Biologics, Portland, Oreg.).
The well-plates were decanted to empty the wells of the reagents and any residue was aspirated carefully with an electronic pipettor. 0.5 ml Trypsin-EDTA was added to each well for 5-7 minutes to aid detachment. Upon complete detachment as determined under a microscope, 0.5 ml Medium 231 was added to the resultant cell suspension to neutralize the Trypsin. 0.5 ml of this cell suspension was taken for reading in a Coulter cell counter.
In FIG. 2, HASM Cells were incubated at 37° C. and 5% CO2 with 0-20 μg/ml Coenzyme Q10, The composition comprising about 0.001% to about 60% (w/w) Coenzyme Q10, and the Vehicle(V) used in The composition comprising about 0.001% to about 60% (w/w) Coenzyme Q10. The 6-well plates were incubated for 24 h in Medium 231. After treatment with Trypsin-EDTA and gentle scraping, cells were neutralized with Medium 231 and mixed by pipetting. Samples were then taken for quantification using a Coulter cell counter. (*Significant compared to Ctrl, P<0.05; One-way ANOVA and Dunnett's).

[3] = system: Human Aortic Smooth Muscle Cells (HASMC); test: ATP production in HASMC, Luciferin-Luciferase ATP assay; conditions: 0-20 μg/ml, 24 h, in words
Description: We have investigated the effect of Q10 on ATP production in Human Aortic Smooth Muscle Cells (HASMC). This cell line was chosen for the study based on its ability to produce ATP at levels detectable by the Luciferin-Luciferase ATP assay. We also studied the effect of The composition comprising about 0.001% to about 60% (w/w) Coenzyme Q10 on Muscle Cell proliferation.
as §2
After incubation, the medium was removed and replaced with cold (4° C.) 1% w/v Trichloroacetic Acid (TCA) as the lysis buffer. This buffer causes almost instantaneous inhibition of ATPases (Kangas et al., Med Biol 62: 338-343 (1984)). The wells were incubated with TCA at room temperature for 5 min with gentle swirling. […]
HASM Cells were incubated at 37° C. and 5% CO2 with 0-20 μg/ml Coenzyme Q10. […] Samples were then taken for quantification of ATP using the Luciferin-Luciferase ATP Assay. […]

[4] = system: human neonatal keratinocytes (SC-KC); test: In vitro incisional wound model, keratinocyte migration; conditions: versus control, in words
Description: (§3) The proliferation and migration of keratinocytes and fibroblasts are paramount to the restoration of the cutaneous architecture. […] To test the effect of Q10 on neonatal fibroblasts and keratinocytes, an in vitro incisional wound model was employed. Cells were seeded in 6-well tissue culture plates with supplemented media and incubated for 48 hours to facilitate a 90% confluency level prior to experimentation. A cross-shaped “wound” gap was made among the near confluent monolayer of cells in the center of each well. Detached cells were then washed off with medium. Each well was then replenished with medium with or without Q10. […] Cell migration was quantified by time and percentage of “wound” gap covered by cells that migrated into the gap field. The percentage of gap filled (PGf) was calculated as PGf=(1−At/A0)×100, where At is the gap area at time t, and A0 is the gap area at time 0. […]
(§4) Human neonatal fibroblasts (nFIB) and human neonatal keratinocytes (SC-KC) were grown to ˜90% confluency in T-75 flasks at which time they were trypsinized and seeded into 6-well tissue culture plates. […] Cell migration was quantified by time and percentage of “wound” gap covered by cells that migrated into the gap field. The percentage of gap filled (PGf) was calculated as PGf=(1−At/A0)×100, where A(t) is the gap area at time t, and A(0) is the gap area at time 0. […]

[5] = system: Human neonatal fibroblasts (nFIB); test: In vitro incisional wound model, fibroblast migration; conditions: versus control, in words
Description: as §3, §4

[6] = system: Human neonatal fibroblasts (nFIB); test: Fibroblast proliferation; conditions: in words
From the text: as §1

COC1=C(OC)C(=O)C(C/C=C(\C)CC/C=C(\C)CC/C=C(\C)CC/C=C(\C)CC/C=C(\C)CC/C=C(\C)CC/C=C(\C)CC/C=C(\C)CC/C=C(\C)CCC=C(C)C)=C(C)C1=O [Q-10, 2,3-dimethoxy-5-methyl-6-decaprenyl-1,4-benzoquinone]
Keratinocyte proliferation [1]: enhances the migration and proliferation | Cell number ([2]; 1.0 μg/ml): 42.4 10^4 | % Diff vs. Ctrl (24 hr) ([2]; 1.0 μg/ml): 65.1% | Cell number ([2]; 20.0 μg/ml): 63.1 10^4 | % Diff vs. Ctrl (24 hr) ([2]; 20.0 μg/ml): 145.6% | Effect on ATP production [3]: increases ATP production | Effect on ATP production ([3]; listed as Coenzyme Q10): stimulatory effect on ATP production | Keratinocyte migration (rate of gap coverage) [4]: statistically significant increase in the rate of gap coverage | Keratinocyte migration (rate of gap coverage) ([4]; listed as coenzyme Q10): enhances the migration and proliferation | Fibroblast migration (rate of gap coverage) [5]: statistically significant increase in the rate of gap coverage | Fibroblast migration (rate of gap coverage) ([5]; listed as coenzyme Q10): enhances the migration and proliferation | Fibroblast proliferation [6]: enhances the migration and proliferation
